Values joined by “and” are separate entries in the source; they are usually repeats but may differ in a detail not shown here. Equal entries are not always repeated.
Columns and labels:
Type in all cases: biochemical
[1] = biological target: T1, SETD2 (Homo sapiens, UniProt Q9BYW2); assay: Methylation of purified ssK36 and H3K36 peptides, Tricine gel autoradiography; conditions: 20 µM peptide, 6 µM SETD2, 0.76 µM AdoMet, 3 h, 25 °C; densitometry, three independent experiments, ± SD
T1 construct: SETD2 catalytic SET domain (amino acids 1347–1711, UniProt No: Q9BYW2); made in house; host or cells: E. coli
T1 sequence (Q9BYW2 1347-1711): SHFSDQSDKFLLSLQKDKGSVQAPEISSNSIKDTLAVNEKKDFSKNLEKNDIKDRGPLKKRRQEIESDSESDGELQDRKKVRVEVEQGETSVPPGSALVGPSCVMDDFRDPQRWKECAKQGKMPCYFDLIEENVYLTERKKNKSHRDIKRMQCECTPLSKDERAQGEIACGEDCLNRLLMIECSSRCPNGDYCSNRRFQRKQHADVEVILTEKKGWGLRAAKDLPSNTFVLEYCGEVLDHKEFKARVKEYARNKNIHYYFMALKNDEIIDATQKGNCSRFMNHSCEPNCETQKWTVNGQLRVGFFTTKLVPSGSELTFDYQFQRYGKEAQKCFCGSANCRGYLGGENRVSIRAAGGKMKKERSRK
Excerpt: To compare the methylation rates of the H3K36 and super-substrate peptides directly, purified ssK36 and H3K36 were methylated by SETD2, resolved on a Tricine gel and the methylation activity captured by autoradiography (Fig. 2b). To allow direct comparison of the methylation levels of both substrates, methylated ssK36 was loaded in different dilutions on the same gel.
The H3K36 (27–43) and the H3K36M (27–43) peptides were purchased from Intavis AG (Köln, Germany) and the ssK36 peptide (29–43) and the ssK36M peptide (29–43) were from Innovative Peptide Solutions (Berlin, Germany). If not indicated otherwise, peptide methylation reactions were performed using 20 µM peptide and 6 µM SETD2 in 20 µl methylation buffer supplemented with 0.76 µM radioactive labeled AdoMet (PerkinElmer) for 3 h at 25 °C. The reactions were halted by the addition of Tricine-SDS-PAGE loading buffer and incubation for 5 min at 95 °C. Afterward the samples were separated by Tricine-SDS-PAGE, which was followed by the incubation of the gel in amplify NAMP100V (GE Healthcare) for 45 min on a shaker and drying of the gel for 2 h at 55 °C in vacuum. The signals of the transferred radioactive labeled methyl groups were detected by autoradiography using a hyperfilm^TM high performance autoradiography film (GE Healthcare) at −80 °C in the dark. […]

[2] = biological target: T1, SETD2; assay: Peptide SPOT array target lysine methylation of selected non-histone peptides (Fig. 3b); conditions: Exp1–Exp3, 3–6 µM SETD2, 0.76 µM AdoMet, 60 min, pH 9, listed as DS
Excerpt: However, we could identify 166 possible targets, which contain partial matches to the substrate specificity profile. The possible methylation of these 166 putative substrates was investigated at the peptide level. For this, fifteen amino acid long peptides containing the sequence of the non-histone targets surrounding the predicted target lysine were synthesized on a membrane. The H3K36 (29–43) peptide (spots A1, I9), the super-substrate peptide (spots A3, I11) and the corresponding lysine to alanine mutation peptides (spot A2, I10, and A4, I12) were included as positive and negative controls (Fig. 3a, Supplementary Fig. 4 and Supplementary Table 2). The methylation reactions and the detection of the methylation signals were performed in duplicates as described above. We observed that all of the investigated peptides were more weakly methylated than the super-substrate peptide. […] In the next step, 20 of the peptides were selected for further investigation based on the methylation intensity and the known functions of the proteins to confirm the methylation at the predicted target site. The peptides were synthesized on another membrane, now including the target lysine to alanine mutation control peptides in each case. The methylation reactions and the detection of the signal were conducted as described above (Fig. 3b, Supplementary Fig. 5 and Supplementary Table 3).
Fig. 3 Identification of non-histone substrates of SETD2. a Candidate non-histone peptide substrates were identified in the human proteome based on the SETD2 super-substrate specificity profile. The peptides were synthesized on a peptide SPOT array (Supplementary Table 2) and methylated by SETD2. As controls, the H3K36, H3K36A, ssK36 and ssK36A peptides were included on spots A1–A4 and I9–I12. The autoradiography image is an example of the obtained results. […] The quantification of the data of two experiments is shown in Supplementary Fig. 4. b Analysis of target lysine methylation of selected non-histone substrate peptides. Peptide SPOT arrays were synthesized containing the non-histone peptide substrates identified in panel A in addition to the lysine to alanine mutations presented on the array as every second spot (Supplementary Table 3). As controls, the H3K36, H3K36A, ssK36, and ssK36A mutant peptides were included on spot A1–A4 and C5–C8. The autoradiography image is an example of the obtained results. The quantification of the data of three experiments is shown in Supplementary Fig. 5. Peptides selected for furhter analysis are highlighted by blue circles. c Protein methylation of FBN1 and confirmation of the target lysine methylation. Both wild type (WT) and mutant (K666R) FBN1 were purified and equal amounts were methylated by SETD2 (2 µM). […] The size of FBN1 is indicated by an asterisk.
Peptide arrays containing fifteen amino acid long peptides were synthesized using the SPOT synthesis method[48] with an Autospot peptide array synthesizer (Intavis AG, Köln, Germany). After synthesis, the obtained membranes were pre-incubated in methylation buffer (20 mM Tris/HCl pH 9, 0.01% Triton X-100, 10 mM DTT, 1.5 mM MgCl2) for 5 min on a shaker. Thereafter, the membranes were incubated in methylation buffer supplemented with 0.76 µM radioactively labeled AdoMet (PerkinElmer) and 3–6 µM SETD2 enzyme for 60 min on a shaker. After methylation, the membranes were washed 5 times for 5 min in wash buffer (100 mM NH4HCO3, 1% SDS) and incubated in amplify NAMP100V (GE Healthcare) for 5 min. This was followed by the exposure of the membranes to a hyperfilm^TM high performance autoradiography (GE Healthcare) film at −80 °C in the dark. The films were developed with an Optimax Typ TR machine after different exposue times. For quantification the signal intensities were measured with the Phoretix^TM software and analyzed with Microsoft Excel.

[3] = test system: SUV39H2; assay: Methylation of ssK36 by SUV39H2; conditions: peer review file Figure R1
[4] = biological target: T1, SETD2; assay: Single turnover time course of ssK36 methylation; conditions: 5 µM substrate, 6 µM enzyme; average ± SEM
Protocol: The H3K36 (27–43) and the H3K36M (27–43) peptides were purchased from Intavis AG (Köln, Germany) and the ssK36 peptide (29–43) and the ssK36M peptide (29–43) were from Innovative Peptide Solutions (Berlin, Germany). If not indicated otherwise, peptide methylation reactions were performed using 20 µM peptide and 6 µM SETD2 in 20 µl methylation buffer supplemented with 0.76 µM radioactive labeled AdoMet (PerkinElmer) for 3 h at 25 °C. The reactions were halted by the addition of Tricine-SDS-PAGE loading buffer and incubation for 5 min at 95 °C. Afterward the samples were separated by Tricine-SDS-PAGE, which was followed by the incubation of the gel in amplify NAMP100V (GE Healthcare) for 45 min on a shaker and drying of the gel for 2 h at 55 °C in vacuum. The signals of the transferred radioactive labeled methyl groups were detected by autoradiography using a hyperfilm^TM high performance autoradiography film (GE Healthcare) at −80 °C in the dark. The film was developed with an Optimax Typ TR machine after different exposure times.
Time courses of ssK36 methylation were analyzed by fitting to an exponential reaction progress curve (Eq. 1). Initial rates of single turnover reactions were determined using the first derivative of eq. 1 at t = 0. Signal=BL+F×1−exp^−kst×t […]

APRFGGVKRPNRYRP [ssK36, super-substrate peptide with four amino acid exchanges (A31R, T32F, K37R, H39N)]
fold more efficient methylation of ssK36 than wild type H3K36 peptide [1]: 50 ± 4 fold | Relative methylation signal, Average [2]: 0.95 and 0.9901 | methylation by SUV39H2 [3]: Lack of methylation | single turnover methylation rate constant kst [4]: 4.07 ± 0.39 h⁻¹
